Assay results published in ChEMBL document CHEMBL3046568, “Synthesis, antimicrobial and DNA cleavage studies of some 4-aryloxymethylcoumarins obtained by reaction of 4-bromomethylcoumarins with bidentate nucleophiles” (2012).
≈ marks a conversion by molar mass, not a printed value. Calls of active or inactive are those of the source. No cut-off for these calls is given here.

Columns and labels:
[1] = system: Staphylococcus aureus; test: Induction of Staphylococcus aureus MTCC 3160 DNA cleavage at 50 ug after 2 hr by agarose gel electrophoresis
[2] = system: Pseudomonas aeruginosa; test: Antibacterial activity against Pseudomonas aeruginosa MTCC 1034 after 24 hr by disk diffusion method; type: functional
[3] = system: Escherichia coli; test: Induction of Escherichia coli MTCC 1089 DNA cleavage at 50 ug after 2 hr by agarose gel electrophoresis
[4] = system: Penicillium chrysogenum; test: Antifungal activity against Penicillium chrysogenum after 3 to 4 days by serial dilution method; type: functional
[5] = system: Staphylococcus aureus; test: Antibacterial activity against Staphylococcus aureus MTCC 3160 after 24 hr by disk diffusion method; type: functional
[6] = system: Aspergillus niger; test: Induction of Aspergillus niger DNA cleavage at 50 ug after 2 hr by agarose gel electrophoresis
[7] = system: Enterococcus faecalis; test: Antibacterial activity against Enterococcus faecalis MTCC 3382 after 24 hr by disk diffusion method; type: functional
[8] = system: Klebsiella pneumoniae; test: Antibacterial activity against Klebsiella pneumoniae MTCC 3384 after 24 hr by disk diffusion method; type: functional
[9] = system: Aspergillus niger; test: Antifungal activity against Aspergillus niger after 3 to 4 days by serial dilution method; type: functional
[10] = system: Mucor fuscus; test: Antifungal activity against Mucor fuscus after 3 to 4 days by serial dilution method; type: functional
[11] = system: Candida albicans; test: Antifungal activity against Candida albicans after 3 to 4 days by serial dilution method; type: functional
[12] = system: Bacillus subtilis; test: Antibacterial activity against Bacillus subtilis MTCC 297 after 24 hr by disk diffusion method; type: functional
[13] = system: Fusarium oxysporum; test: Antifungal activity against Fusarium oxysporum after 3 to 4 days by serial dilution method; type: functional
[14] = system: Aspergillus fumigatus; test: Antifungal activity against Aspergillus fumigatus after 3 to 4 days by serial dilution method; type: functional
[15] = system: Escherichia coli; test: Antibacterial activity against Escherichia coli MTCC 1089 after 24 hr by disk diffusion method; type: functional
[16] = system: Aspergillus niger; test: Induction of Aspergillus niger DNA cleavage at 25 ug after 2 hr by agarose gel electrophoresis
[17] = system: Staphylococcus aureus; test: Induction of Staphylococcus aureus MTCC 3160 DNA cleavage at 25 ug after 2 hr by agarose gel electrophoresis

Question: Which results are given for O=c1cc(COc2cccc(O)c2)c2cc(Cl)ccc2o1?
Answer: Activity [1]: Active; inhibition zone (IZ) [2]: 24 mm; MIC ([2]; Pseudomonas aeruginosa, MTCC 1034, 24 h): 6.25 µg/mL (≈ 20.6 µM); Activity [3]: Active; inhibition zone (IZ) [4]: 22 mm; MIC ([4]; Penicillium chrysogenum): 6.25 µg/mL (≈ 20.6 µM); inhibition zone (IZ) [5]: 21 mm; MIC ([5]; Staphylococcus aureus, MTCC 3160, 24 h): 6.25 µg/mL (≈ 20.6 µM); Activity [6]: Active; inhibition zone (IZ) [7]: 22 mm; MIC ([7]; Enterococcus faecalis, MTCC 3382, 24 h): 6.25 µg/mL (≈ 20.6 µM); inhibition zone (IZ) [8]: 19 mm; MIC ([8]; Klebsiella pneumoniae, MTCC 3384, 24 h): 6.25 µg/mL (≈ 20.6 µM); inhibition zone (IZ) [9]: 24 mm; MIC ([9]; Aspergillus niger): 6.25 µg/mL (≈ 20.6 µM); inhibition zone (IZ) [10]: 21 mm; MIC ([10]; Mucor fuscus): 6.25 µg/mL (≈ 20.6 µM); inhibition zone (IZ) [11]: 20 mm; MIC ([11]; Candida albicans): 6.25 µg/mL (≈ 20.6 µM); inhibition zone (IZ) [12]: 20 mm; MIC ([12]; Bacillus subtilis, MTCC 297, 24 h): 6.25 µg/mL (≈ 20.6 µM); inhibition zone (IZ) [13]: 17 mm; MIC ([13]; Fusarium oxysporum): 12.5 µg/mL (≈ 41.3 µM); inhibition zone (IZ) [14]: 21 mm; MIC ([14]; Aspergillus fumigatus): 6.25 µg/mL (≈ 20.6 µM); inhibition zone (IZ) [15]: 17 mm; MIC ([15]; Escherichia coli, MTCC 1089, 24 h): 12.5 µg/mL (≈ 41.3 µM); Activity [16]: Active; Activity [17]: Active
